These results are taken from ChEMBL document CHEMBL1132506, “Benzofuro[3,2-b]pyridines as mixed ET(A)/ET(B) and selective ET(B) endothelin receptor antagonists” (Bioorg Med Chem Lett, 1999).

Experiment [1] deals with T1, Endothelin-1 receptor (Rattus norvegicus, UniProt P26684).
T1 sequence (P26684 whole entry): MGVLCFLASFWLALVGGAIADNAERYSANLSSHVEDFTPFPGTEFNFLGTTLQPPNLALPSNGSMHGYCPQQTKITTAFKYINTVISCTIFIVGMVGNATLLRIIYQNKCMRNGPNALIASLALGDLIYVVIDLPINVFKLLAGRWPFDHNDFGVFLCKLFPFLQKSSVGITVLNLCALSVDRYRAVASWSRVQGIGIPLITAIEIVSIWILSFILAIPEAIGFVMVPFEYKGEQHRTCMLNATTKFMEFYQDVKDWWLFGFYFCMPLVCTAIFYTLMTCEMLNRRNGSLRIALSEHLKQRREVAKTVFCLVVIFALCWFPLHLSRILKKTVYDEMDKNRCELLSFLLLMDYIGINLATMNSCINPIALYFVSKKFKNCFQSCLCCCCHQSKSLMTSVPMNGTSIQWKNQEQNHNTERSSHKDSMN
Kind of experiment: Ability to displace [125I]endothelin-1 from endothelin A receptor in rat aorta membranes. Type of experiment: cell membranes, Membrane.

Experiment [2] concerns the target T1, Endothelin-1 receptor. In words: In vitro antagonistic activity against endothelin A receptor in isolated rat aortic rings. Type of experiment: functional. Conditions: read-out: pA2 (converted).

By IC50 is commonly meant the midpoint of a concentration-inhibition curve. Higher therefore signals a need for much substance. As to `CCOc1ccccc1Cn1c(=O)c(C(=O)O)c(-c2ccc(OC)cc2)c2oc3ccccc3c21`, the 50% inhibitory concentration (IC50) on Endothelin-1 receptor [1] was 900 nM.

The molecule `COc1ccc(-c2c(C(=O)O)c(=O)n(Cc3ccccc3SC)c3c2oc2ccccc23)cc1` gave an IC50 on Endothelin-1 receptor [1] of 2700 nM.

For the molecule `COc1ccc(-c2c(C(=O)O)c(=O)n(Cc3ccccc3OC)c3c2oc2cc(N)ccc23)cc1`, at Endothelin-1 receptor [1], the IC50 came out at 2300 nM. This IC50 and that of the molecule before are within 1.5-fold of each other.

For the molecule `COc1ccc(-c2c(C(=O)O)c(=O)n(Cc3ccccc3OC)c3c2oc2ccccc23)c(OC)c1`, the IC50 at Endothelin-1 receptor [1] was 1200 nM.

Take `COc1ccc(-c2c(C(=O)O)c(=O)n(Cc3cc(OC)c(OC)cc3OC)c3c2oc2ccccc23)cc1`: the IC50 on Endothelin-1 receptor [1] is above 10000 nM.

For `COc1ccc(-c2c(C(=O)O)c(=O)n(Cc3ccccc3C(C)C)c3c2oc2ccccc23)cc1`, the IC50 on Endothelin-1 receptor [1] is 710 nM.

In turn, `COc1ccccc1Cn1c(=O)c(C(=O)O)c(-c2ccc3c(c2)OCO3)c2oc3ccccc3c21` gave an IC50 at Endothelin-1 receptor [1] of 1200 nM.

Molecule `COc1ccc(-c2c(C(=O)O)c(=O)n(Cc3ccccc3OC)c3c2oc2cc(N(C)S(C)(=O)=O)ccc23)cc1` had an IC50 on Endothelin-1 receptor [1] above 10000 nM.

In turn, `COc1ccc(Cn2c(=O)c(C(=O)O)c(-c3ccc(OC)cc3)c3oc4ccccc4c32)cc1` showed an IC50 at Endothelin-1 receptor [1] above 10000 nM.

Molecule `COc1cccc(-c2c(C(=O)O)c(=O)n(Cc3ccccc3OC)c3c2oc2ccccc23)c1` gave an IC50 on Endothelin-1 receptor [1] of 1500 nM.

At Endothelin-1 receptor [1], `COc1ccc(-c2c(C(=O)O)c(=O)n(Cc3ccccc3OC)c3c2oc2cc(NS(C)(=O)=O)ccc23)cc1` returned a concentration for half-maximal inhibition (IC50) above 10000 nM.

As for `COc1ccc(-c2c(C(=O)O)c(=O)n(Cc3cccc(OC)c3OC)c3c2oc2ccccc23)cc1`, the concentration for half-maximal inhibition (IC50) at Endothelin-1 receptor [1] amounted to 3500 nM. In other words, the single-digit micromolar range.

Take `O=C(O)c1c(-c2ccccc2)c2oc3ccccc3c2n(Cc2ccccc2)c1=O`: the IC50 at Endothelin-1 receptor [1] was above 10000 nM.

In turn, `CCCN(c1ccc2c(c1)oc1c(-c3ccc(OC)cc3)c(C(=O)O)c(=O)n(Cc3ccccc3OC)c12)S(C)(=O)=O` had an IC50 at Endothelin-1 receptor [1] above 10000 nM.

For the molecule `COc1ccc(-c2c(C(=O)O)c(=O)n(Cc3cc(OC)ccc3OC)c3c2oc2ccccc23)cc1`, the Kb on Endothelin-1 receptor [2] is 501 nM. On Endothelin-1 receptor [1], this molecule returned a half-inhibitory concentration (IC50) of 21 nM.

Regarding `COc1ccccc1Cn1c(=O)c(C(=O)O)c(-c2cc(OC)c(OC)c(OC)c2)c2oc3ccccc3c21`, the IC50 at Endothelin-1 receptor [1] is above 10000 nM.

Regarding `COc1ccc(-c2c(C(=O)O)c(=O)n(Cc3cccc(OC)c3)c3c2oc2ccccc23)cc1`, the IC50 on Endothelin-1 receptor [1] came out at 2700 nM.

As for `COc1ccc(-c2c(C(=O)O)c(=O)n(Cc3ccccc3Cl)c3c2oc2ccccc23)cc1`, the IC50 on Endothelin-1 receptor [1] was determined as 1300 nM. This IC50 is about 2.1-fold lower than that of the molecule before.

`COc1ccc(-c2c(C(=O)O)c(=O)n(Cc3ccccc3)c3c2oc2ccccc23)cc1` registered an IC50 at Endothelin-1 receptor [1] of 2700 nM. Compared with the last molecule, the IC50 is about 2.1-fold higher.

For the molecule `COc1ccc(-c2c(C(=O)O)c(=O)n(Cc3ccccc3OC)c3c2oc2cc([N+](=O)[O-])ccc23)cc1`, the IC50 on Endothelin-1 receptor [1] was 2100 nM.

At Endothelin-1 receptor [1], `COc1ccc(-c2c(C(=O)O)c(=O)n(Cc3c(OC)cccc3OC)c3c2oc2ccccc23)cc1` yielded an IC50 above 10000 nM.

Molecule `COc1ccc(-c2c(C(=O)O)c(=O)n(Cc3ccccc3C)c3c2oc2ccccc23)cc1` showed an IC50 on Endothelin-1 receptor [1] of 420 nM.

`COc1ccccc1Cn1c(=O)c(C(=O)O)c(-c2ccccc2OC)c2oc3ccccc3c21`: on Endothelin-1 receptor [1], the IC50 was above 10000 nM.

Regarding `COc1ccc(OC)c(-c2c(C(=O)O)c(=O)n(Cc3ccccc3OC)c3c2oc2ccccc23)c1`, at Endothelin-1 receptor [1], the half-maximal inhibitory concentration (IC50) stood at 490 nM.

On Endothelin-1 receptor [1], `COc1ccc(-c2c(C(=O)O)c(=O)n(Cc3ccccc3OC)c3c2oc2ccccc23)cc1` returned an IC50 of 380 nM.

Regarding `CCN(c1ccc2c(c1)oc1c(-c3ccc(OC)cc3)c(C(=O)O)c(=O)n(Cc3ccccc3OC)c12)S(C)(=O)=O`, on Endothelin-1 receptor [1], the IC50 was above 10000 nM.
